Laboratory results: patent publication US20260041093A1, “Ionic Derivatives Of Aromatic Carboxylic Acid For Use As Plant Stimulants, Method For Stimulating Plants And Use Of These Derivatives For Manufacturing Compositions For Stimulating Plants” (FUNDACJA UNIWERSYTETU IM. ADAMA MICKIEWICZA W POZNANIU, priority 2022, published 2026)
Like-named read-outs stand apart in the source and are kept apart here.

Columns and labels:
winter rapeseed = details: for more aboveground dry matter compared to control: last harvest date, fully ripe
From the text: The experiment was established using the long strip method in four repetitions. The dimensions of the plots at establishment were 96 m^2 gross, while the harvestable area was 23.25 m^2 net.
In the experiment, uniform NPK fertilization was applied, using both bulk and liquid fertilizers.
The following facilities were included in the experiment: • 1. control, no stimulant application, standard fungicide protection • 2. stimulant applied at stage 31-32 according to the BBCH development scale, standard fungicide protection • 3. stimulant applied at stage 53-55 according to the BBCH development scale, no fungicide protection

broccoli = assay: Broccoli seedlings in pots sprayed: height, fresh and dry weight (Example 4); type: in vivo
Protocol: Broccoli seedling were planted into pots with peat substrate (P9 pots having 0.5 l). Pots were placed in greenhouse and cultivated for a 1 month. […] 2-fluoroethyl(trimethyl)ammonium benzo[1,2,3]thiadiazole-7-carboxylate; 3. 2-bromoethyl(trimethyl)ammonium benzo[1,2,3]thiadiazole-7-carboxylate; 4. 2-chloroethyl(trimethyl)ammonium benzo[1,2,3]thiadiazole-7-carboxylate; 5. 2-iodoethyl(trimethyl)ammonium benzo[1,2,3]thiadiazole-7-carboxylate used at a concentration of 30 mg/L and 6. 2-hydroxyethyl(trimethyl)ammonium 3-chlorosalicylate (tested also at a concentration of 50 mg/L); 7. 3-chlorosalicylate 2-fluoroethyl(trimethyl)ammonium; 8. 3-chlorosalicylate 2-bromoethyl(trimethyl)ammonium; 9. 3-chlorosalicylate 2-chloroethyl(trimethyl)ammonium; 10. 3-chlorosalicylate 2-iodoethyl(trimethyl)ammonium used at a concentration of 80 mg/L. Plants were sprayed with tested substances three times at 10-day intervals. Plants treated with water only were the untreated control. During the course of the experiment, the height of the plants was measured, and at the end the fresh and dry weight of the aboveground part was evaluated. The experiment was conducted in 4 repetitions with 5 plants in each (a total of 20 plants per each combination).

tomato seedlings = assay: Tomato seedlings in pots sprayed 3 times: height, fresh and dry weight, chlorophyll (Example 3); type: in vivo; details: 80 mg/L, benzothiadiazole salt 30 mg/L
From the text: Tomato seedlings (12 according to development scale BBCH) were planted into pots with peat substrate (P9 pots having 0.5 l). Plant pots were placed in greenhouse and cultivated for a 1 and a half month. Plants were sprayed with tested substance 3 times, in 10-day interval. […] 2-methoxyethyl(trimethyl)-ammonium benzo[1,2,3]thiadiazole-7-carboxylate; 3. […] 2-methoxyethyl(trimethyl)ammonium 3-chlorosalicylate; 7. 2-ethoxyethyl(trimethyl)ammonium 3-chlorosalicylate; 8. ethyl(trimethyl)ammonium 3-chlorosalicylate at a concentration od 80 mg/l. Plants were sprayed with tested substances three times at 10-day intervals. Plants in peat substrate treated with water only were the control. During the course of the experiment, the height of the plants was measured, and at the end the fresh and dry weight of the aboveground part was evaluated. Moreover chlorophyll content was measured. The experiment was conducted in 4 repetitions with 5 plants in each (a total of 20 plants per each variant of treatment).

bell pepper = assay: Bell pepper seedlings in pots sprayed: height, fresh and dry weight (Example 5); type: in vivo
Protocol: Pepper seedlings were planted into pots with peat substrate (P9 pots having 0,5 l). Pots were placed in greenhouse and cultivated for a 1 month. […] Plants treated with water only were the untreated control. During the course of the experiment, the height of the plants was measured, and at the end the fresh and dry weight of the aboveground part was evaluated.

[1] = BBCH 32, standard fungicide protection, 80 mg/L, benzothiadiazole salt 25 mg/L
[2] = BBCH 32, stimulant only, 80 mg/L, benzothiadiazole salt 25 mg/L
[3] = BBCH 55, standard fungicide protection, 80 mg/L, benzothiadiazole salt 25 mg/L
[4] = BBCH 55, without fungicide, 80 mg/L, benzothiadiazole salt 25 mg/L
[5] = first sampling date, stimulant at BBCH 31-32, no fungicide yet, 80 mg/L, benzothiadiazole salt 25 mg/L
[6] = second date, regardless of cultivation technology, 80 mg/L, benzothiadiazole salt 25 mg/L
[7] = 3-chlorosalicylate 80 mg/L, benzothiadiazole salt 30 mg/L

SMILES: C[N+](C)(C)CCO.O=C([O-])c1cccc2nnsc12
- increase in calcium uptake (winter rapeseed; [1]): 5%
- increase in magnesium uptake (winter rapeseed; [1]): 5%
- increase in nitrogen uptake (winter rapeseed; [1]): 5%
- increase in phosphorus uptake (winter rapeseed; [1]): 5%
- increase in potassium uptake (winter rapeseed; [1]): 6%
- increase in calcium uptake (winter rapeseed; [2]): 9%
- increase in magnesium uptake (winter rapeseed; [2]): 11%
- increase in nitrogen uptake (winter rapeseed; [2]): 8%
- increase in phosphorus uptake (winter rapeseed; [2]): 9%
- increase in potassium uptake (winter rapeseed; [2]): 7%
- higher fat content (winter rapeseed; BBCH 32, with fungicide, 80 mg/L, benzothiadiazole salt 25 mg/L): 6%
- higher fat content (winter rapeseed; BBCH 32, without fungicide, 80 mg/L, benzothiadiazole salt 25 mg/L): 8%
- increase in calcium uptake (winter rapeseed; [3]): 10%
- increase in fat content (winter rapeseed; [3]): 6%
- increase in magnesium uptake (winter rapeseed; [3]): 9%
- increase in nitrogen uptake (winter rapeseed; [3]): 9%
- increase in phosphorus uptake (winter rapeseed; [3]): 11%
- increase in potassium uptake (winter rapeseed; [3]): 8%
- increase in calcium uptake (winter rapeseed; [4]): 9%
- increase in fat content (winter rapeseed; [4]): increase
- increase in magnesium uptake (winter rapeseed; [4]): 13%
- increase in nitrogen uptake (winter rapeseed; [4]): 12%
- increase in phosphorus uptake (winter rapeseed; [4]): 9%
- increase in potassium uptake (winter rapeseed; [4]): 8%
- seed yields higher compared to control (winter rapeseed; both fungicide and stimulant treatments, 80 mg/L, benzothiadiazole salt 25 mg/L): 12%
- chlorophyll content, differences between the tested objects (winter rapeseed; first measurement date): no differences were observed
- more biomass (dry weight) compared to control (winter rapeseed; [5]): 29%
- more biomass (fresh weight) compared to control (winter rapeseed; [5]): 28%
- more aboveground dry matter compared to control (winter rapeseed; only the stimulant, 80 mg/L, benzothiadiazole salt 25 mg/L): 32%
- more aboveground dry matter compared to control (winter rapeseed; with fungicide protection, 80 mg/L, benzothiadiazole salt 25 mg/L): 38%
- more dry weight compared to control, on average (winter rapeseed; [6]): 26%
- more fresh weight compared to control, on average (winter rapeseed; [6]): 24%
- weight of one thousand seeds higher compared to control (winter rapeseed; tested combinations, 80 mg/L, benzothiadiazole salt 25 mg/L): 12%
- more chlorophyll in the leaves (SPAD) compared to control (winter rapeseed; with a fungicide, printed 'first date' (of second and third measurement dates), 80 mg/L, benzothiadiazole salt 25 mg/L): 6%
- more chlorophyll in the leaves (SPAD) compared to control (winter rapeseed; with a fungicide, printed 'second date', 80 mg/L, benzothiadiazole salt 25 mg/L): 8%
- more chlorophyll in the leaves (SPAD) compared to control (winter rapeseed; without a fungicide, printed 'first date', 80 mg/L, benzothiadiazole salt 25 mg/L): 8%
- more chlorophyll in the leaves (SPAD) compared to control (winter rapeseed; without a fungicide, printed 'second date', 80 mg/L, benzothiadiazole salt 25 mg/L): 12%
- seed yields higher compared to control (winter rapeseed; without fungicide protection, stimulant at BBCH 31-32, 80 mg/L, benzothiadiazole salt 25 mg/L): 9%
- Average dry mass (broccoli; [7]): 0.7 b g
- Average fresh mass (broccoli; [7]): 7.8 c g
- Average plant height, initial height, before first treatment (broccoli; [7]): 39.2 c mm
- Average plant height, second treatment (broccoli; [7]): 187.2 b mm
- Average plant height, third treatment (broccoli; [7]): 215.7 b mm
- Plant height increase (broccoli; [7]): 176.5 b mm
- number of leaves developed (broccoli; FIG. 2, treated once, 5 mg/L, control plant developed 3 leaves): 4
- Average plant height, before second treatment (tomato seedlings; chitosan lactate 50 mg/l): 146.7 b mm
- Average plant height, before third treatment (tomato seedlings; chitosan lactate 50 mg/l): 337.1 b mm
- Average plant height, initial height, before first treatment (tomato seedlings; chitosan lactate 50 mg/l): 60.5 a mm
- Chlorophyll content (SPAD), a day after treatment #1 (tomato seedlings; chitosan lactate 50 mg/l): 76.1 b
- Chlorophyll content (SPAD), a day after treatment #2 (tomato seedlings; chitosan lactate 50 mg/l): 81.3 c
- Chlorophyll content (SPAD), a day after treatment #3 (tomato seedlings; chitosan lactate 50 mg/l): 78.2 b
- Plant height increase (tomato seedlings; chitosan lactate 50 mg/l): 276.6 b mm
- Average dry mass (tomato seedlings; above-ground part): 87.5 b g
- Average fresh mass (tomato seedlings; above-ground part): 333.5 b g
- Chlorophyll content (SPAD), Treatment #1 (tomato seedlings; before treatment #1, chitosan lactate 50 mg/l): 49.6 a
- Chlorophyll content (SPAD), Treatment #2 (tomato seedlings; before treatment #2, chitosan lactate 50 mg/l): 47.5 a
- Chlorophyll content (SPAD), Treatment #3 (tomato seedlings; before treatment #3, chitosan lactate 50 mg/l): 50.1 a
- Average dry mass (bell pepper; 20 mg/L): 13.3 c g
- Average fresh mass (bell pepper; 20 mg/L): 94.6 c g
- Average plant height, initial height, before first treatment (bell pepper; 20 mg/L): 43.5 b mm
- Average plant height, second treatment (bell pepper; 20 mg/L): 150.8 b mm
- Average plant height, third treatment (bell pepper; 20 mg/L): 226.6 c mm
- Plant height increase (bell pepper; 20 mg/L): 183.1 c mm
- Average dry mass (bell pepper; [7]): 15.6 g·days
- Average fresh mass (bell pepper; [7]): 115.5 g·days
- Average plant height, initial height, before first treatment (bell pepper; [7]): 39.9 a mm
- Average plant height, second treatment (bell pepper; [7]): 142.9 a mm
- Average plant height, third treatment (bell pepper; [7]): 270.8 d mm
- Plant height increase (bell pepper; [7]): 230.9 d mm
